# Experimental data as given in ChEMBL document CHEMBL3885881, “DrugMatrix”.
# Species on record: Rattus norvegicus
# Assay: DrugMatrix - Regimen: Daily Repeat
# Assay type: toxicity, organism-based, Sprague-Dawley
# Set-up: regimen Daily Repeat, gender Male, age 6-8 weeks
# Details: in vivo, sc, route subcutaneous, […]; for ABSOLUTE BASOPHIL / ABSOLUTE EOSINOPHIL / ABSOLUTE LYMPHOCYTE / ABSOLUTE MONOCYTE / ABSOLUTE SEGMENTED NEUTROPHIL / BASOPHIL / EOSINOPHIL / ERYTHROCYTE COUNT / HEMATOCRIT / HEMOGLOBIN / LEUKOCYTE COUNT / LYMPHOCYTE / MEAN CORPUSCULAR HEMOGLOBIN / MEAN CORPUSCULAR HEMOGLOBIN CONCENTRATION / MEAN CORPUSCULAR VOLUME / MONOCYTE / NEUTROPHIL / NUCLEATED RED BLOOD CELLS / PLATELET COUNT: tissue Blood; for ALANINE AMINOTRANSFERASE / ALBUMIN / ALKALINE PHOSPHATASE / ASPARTATE AMINOTRANSFERASE / BLOOD UREA NITROGEN / CARBON DIOXIDE / CHLORIDE / CHOLESTEROL / CREATINE PHOSPHOKINASE / CREATININE / GLUCOSE / LACTATE DEHYDROGENASE / LIPASE / PHOSPHORUS / POTASSIUM / SODIUM / TOTAL BILIRUBIN / TOTAL PROTEIN / URIC ACID: tissue Plasma
# [1] = 0 mg/kg, 72 h, dose level Control, time 3 day
# [2] = 0 mg/kg, 120 h, dose level Control, time 5 day
# [3] = 50 mg/kg, 72 h, dose level Low, time 3 day
smiles,measurement,setting,value
CC(C)(c1ccc(O)cc1)c1ccc(O)cc1 [BISPHENOL A],ABSOLUTE BASOPHIL,[1],0 CELLS/uL
same,ABSOLUTE EOSINOPHIL,[1],0 CELLS/uL
same,ABSOLUTE LYMPHOCYTE,[1],9782.33 CELLS/uL
same,ABSOLUTE MONOCYTE,[1],114.67 CELLS/uL
same,ABSOLUTE SEGMENTED NEUTROPHIL,[1],753 CELLS/uL
same,BASOPHIL,[1],0%
same,EOSINOPHIL,[1],0%
same,ERYTHROCYTE COUNT,[1],5.14 x10E6/uL
same,HEMATOCRIT,[1],32.12%
same,HEMOGLOBIN,[1],13.13 G/DL
same,LEUKOCYTE COUNT,[1],10.65 x10E3/uL
same,LYMPHOCYTE,[1],91.83%
same,MEAN CORPUSCULAR HEMOGLOBIN,[1],25.83 pg
same,MEAN CORPUSCULAR HEMOGLOBIN CONCENTRATION,[1],41.28 G/DL
same,MEAN CORPUSCULAR VOLUME,[1],62.43 fL
same,MONOCYTE,[1],1%
same,NEUTROPHIL,[1],7.17%
same,NUCLEATED RED BLOOD CELLS,[1],0.17 /100WBC
same,PLATELET COUNT,[1],657.83 x10E3/uL
same,ALANINE AMINOTRANSFERASE,[1],60.33 u/L
same,ALBUMIN,[1],3.83 G/DL
same,ALKALINE PHOSPHATASE,[1],366.33 u/L
same,ASPARTATE AMINOTRANSFERASE,[1],104.5 u/L
same,BLOOD UREA NITROGEN,[1],12.33 mg/dL
same,CARBON DIOXIDE,[1],23.17 mmol/L
same,CHLORIDE,[1],96.67 MEQ/L
same,CHOLESTEROL,[1],73.17 mg/dL
same,CREATINE PHOSPHOKINASE,[1],545.83 u/L
same,CREATININE,[1],0.26 mg/dL
same,GLUCOSE,[1],144.33 mg/dL
same,LACTATE DEHYDROGENASE,[1],147.5 u/L
same,LIPASE,[1],9.33 u/L
same,PHOSPHORUS,[1],10.83 mg/dL
same,POTASSIUM,[1],5.68 MEQ/L
same,SODIUM,[1],138.83 MEQ/L
same,TOTAL BILIRUBIN,[1],0.17 mg/dL
same,TOTAL PROTEIN,[1],5.42 G/DL
same,URIC ACID,[1],0.65 mg/dL
same,ABSOLUTE BASOPHIL,[2],0 CELLS/uL
same,ABSOLUTE EOSINOPHIL,[2],43.33 CELLS/uL
same,ABSOLUTE LYMPHOCYTE,[2],12883 CELLS/uL
same,ABSOLUTE MONOCYTE,[2],166.83 CELLS/uL
same,ABSOLUTE SEGMENTED NEUTROPHIL,[2],1290.17 CELLS/uL
same,BASOPHIL,[2],0%
same,EOSINOPHIL,[2],0.33%
same,ERYTHROCYTE COUNT,[2],5.79 x10E6/uL
same,HEMATOCRIT,[2],36.37%
same,HEMOGLOBIN,[2],14.17 G/DL
same,LEUKOCYTE COUNT,[2],14.38 x10E3/uL
same,LYMPHOCYTE,[2],89.17%
same,MEAN CORPUSCULAR HEMOGLOBIN,[2],24.48 pg
same,MEAN CORPUSCULAR HEMOGLOBIN CONCENTRATION,[2],38.98 G/DL
same,MEAN CORPUSCULAR VOLUME,[2],62.83 fL
same,MONOCYTE,[2],1.17%
same,NEUTROPHIL,[2],9.33%
same,NUCLEATED RED BLOOD CELLS,[2],0.5 /100WBC
same,PLATELET COUNT,[2],1267.33 x10E3/uL
same,ALANINE AMINOTRANSFERASE,[2],53.5 u/L
same,ALBUMIN,[2],3.82 G/DL
same,ALKALINE PHOSPHATASE,[2],342.33 u/L
same,ASPARTATE AMINOTRANSFERASE,[2],83.67 u/L
same,BLOOD UREA NITROGEN,[2],13.17 mg/dL
same,CARBON DIOXIDE,[2],28.17 mmol/L
same,CHLORIDE,[2],101.5 MEQ/L
same,CHOLESTEROL,[2],70.83 mg/dL
same,CREATINE PHOSPHOKINASE,[2],656.67 u/L
same,CREATININE,[2],0.17 mg/dL
same,GLUCOSE,[2],171.33 mg/dL
same,LACTATE DEHYDROGENASE,[2],169 u/L
same,LIPASE,[2],9.17 u/L
same,PHOSPHORUS,[2],12.88 mg/dL
same,POTASSIUM,[2],6.54 MEQ/L
same,SODIUM,[2],141.2 MEQ/L
same,TOTAL BILIRUBIN,[2],0.18 mg/dL
same,TOTAL PROTEIN,[2],5.68 G/DL
same,URIC ACID,[2],2.02 mg/dL
same,ABSOLUTE BASOPHIL,[3],0 CELLS/uL
same,ABSOLUTE EOSINOPHIL,[3],47.33 CELLS/uL
same,ABSOLUTE LYMPHOCYTE,[3],13197 CELLS/uL
same,ABSOLUTE MONOCYTE,[3],0 CELLS/uL
same,ABSOLUTE SEGMENTED NEUTROPHIL,[3],655.67 CELLS/uL
same,BASOPHIL,[3],0%
same,EOSINOPHIL,[3],0.33%
same,ERYTHROCYTE COUNT,[3],5.26 x10E6/uL
same,HEMATOCRIT,[3],33.73%
same,HEMOGLOBIN,[3],13.37 G/DL
same,LEUKOCYTE COUNT,[3],13.9 x10E3/uL
same,LYMPHOCYTE,[3],94.67%
same,MEAN CORPUSCULAR HEMOGLOBIN,[3],25.43 pg
same,MEAN CORPUSCULAR HEMOGLOBIN CONCENTRATION,[3],39.67 G/DL
same,MEAN CORPUSCULAR VOLUME,[3],64.23 fL
same,MONOCYTE,[3],0%
same,NEUTROPHIL,[3],5%
same,NUCLEATED RED BLOOD CELLS,[3],0 /100WBC
same,PLATELET COUNT,[3],1085.33 x10E3/uL
same,ALANINE AMINOTRANSFERASE,[3],58.33 u/L
same,ALBUMIN,[3],4.1 G/DL
same,ALKALINE PHOSPHATASE,[3],341 u/L
same,ASPARTATE AMINOTRANSFERASE,[3],86.67 u/L
same,BLOOD UREA NITROGEN,[3],11.33 mg/dL
same,CARBON DIOXIDE,[3],27.67 mmol/L
same,CHLORIDE,[3],96.5 MEQ/L
same,CHOLESTEROL,[3],65.67 mg/dL
same,CREATINE PHOSPHOKINASE,[3],317.33 u/L
same,CREATININE,[3],0.21 mg/dL
same,GLUCOSE,[3],134 mg/dL
same,LACTATE DEHYDROGENASE,[3],126.67 u/L
same,LIPASE,[3],12.33 u/L
same,PHOSPHORUS,[3],10.53 mg/dL
same,POTASSIUM,[3],5.77 MEQ/L
same,SODIUM,[3],139.05 MEQ/L
same,TOTAL BILIRUBIN,[3],0.17 mg/dL
same,TOTAL PROTEIN,[3],5.33 G/DL
same,URIC ACID,[3],0.37 mg/dL
